Source: patent US9708336B2, “Metallo-beta-lactamase inhibitors” (priority 2014, dated 2017)
Read-outs that look alike come from different tables or passages of the source.

How the values were obtained:
[1] = biological target: NDM-1 (Klebsiella pneumoniae, UniProt C7C422); assay: biochemical; format: biochemical; settings: read-out: NDM-1 IC50
[2] = biological target: IMP-1 (Serratia marcescens, UniProt P52699); assay: biochemical; format: biochemical; settings: read-out: IMP-1 IC50
[3] = biological target: VIM-1 (Pseudomonas aeruginosa (strain ATCC 15692 / DSM 22644 / CIP 104116 / JCM 14847 / LMG 12228 / 1C / PRS 101 / PAO1), UniProt A0A0F7KYQ8); assay: Enzyme activity: determination of IC50, fluorescence assay with CCF2-FA substrate (VIM-1); format: biochemical
Method: Enzyme Activity: Determination of IC50
The Class B enzyme activities were measured in the presence of the test inhibitor in a fluorescence assay against a commercially available substrate consisting of a cephalosporin core linking 7-hydroxycoumarin to fluorescein (CCF2-FA). The enzyme (NDM-1, IMP-1 or VIM-1) and the substrate were diluted in 100 mM KH2PO4 buffer (pH 7) containing 0.005% Tween-20 and 10 μM ZnSO4. […] The test inhibitor was dissolved in dimethylsulfoxide and diluted 1:50 in the assay, resulting in a final concentration range of 20 uM to 0.00063 uM. In a 384-well microplate, the test inhibitor was incubated with the metallo-β-lactamase enzyme and the substrate for 2 hours at 25° C. Fluorescence at 460 nm following excitation at 405 nm was measured. The IC50 value was determined from semi-logarithmic plots of enzyme inhibition versus inhibitor concentration, with a curve generated using a 4-parameter fit.

[4] = tested on: Escherichia coli expressing NDM-1 (CLB30005); assay: Antibiotic potentiation activity: synergistic concentration (MITC95) with imipenem, OD600 growth; format: cell-based; settings: for Escherichia coli MITC95: Escherichia coli expressing NDM-1 (CLB30005), 95% growth inhibition; for Escherichia coli expressing NDM-1 (CLB 30005) MITC95: concentration giving 95% inhibition of bacterial growth
Summary of the method: (§1)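 Growth after 22–24 h at 35 °C is measured spectrophotometrically for bacteria incubated with compound plus imipenem (4 μg/ml in-well, or 1 μg/ml). Cells come from overnight agar colonies resuspended in saline and diluted 1:100 in 1.1× CAMHB.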

[5] = tested on: Escherichia coli expressing NDM-1 (CLB30016); assay: as above; format: cell-based; settings: for Escherichia coli MITC95: Escherichia coli expressing NDM-1 (CLB30016), 95% growth inhibition
Summary of the method: as §1

[6] = tested on: Klebsiella pneumoniae expressing VIM-1 (IHMA599644); assay: as above; format: cell-based; settings: for Klebsiella pneumoniae MITC95: Klebsiella pneumoniae expressing VIM-1 (IHMA599644), 95% growth inhibition; for Klebsiella pneumoniae expressing VIM-1 (IHMA 599644) MITC95: concentration giving 95% inhibition of bacterial growth
Summary of the method: as §1

[7] = tested on: Serratia marcescens expressing IMP-1 (CL5741); assay: as above; format: cell-based; settings: for Serratia marcescens MITC95: Serratia marcescens expressing IMP-1 (CL5741), 95% growth inhibition; for Serratia marcescens expressing IMP-1 (CL5741) MITC95: concentration giving 95% inhibition of bacterial growth
Summary of the method: as §1

[8] = NDM-1 enzyme, CCF2-FA fluorescence assay
[9] = IMP-1 enzyme, CCF2-FA fluorescence assay
[10] = VIM-1 enzyme, CCF2-FA fluorescence assay, read-out: VIM-1 IC50
[11] = fluorescence assay with CCF2-FA substrate
[12] = fluorescence assay with CCF2-FA substrate, read-out: VIM-1 IC50
[13] = VIM-1 IC50, VIM-1 enzyme, CCF2-FA fluorescence assay

Sequence of NDM-1 (C7C422 whole entry, looked up, species assumed): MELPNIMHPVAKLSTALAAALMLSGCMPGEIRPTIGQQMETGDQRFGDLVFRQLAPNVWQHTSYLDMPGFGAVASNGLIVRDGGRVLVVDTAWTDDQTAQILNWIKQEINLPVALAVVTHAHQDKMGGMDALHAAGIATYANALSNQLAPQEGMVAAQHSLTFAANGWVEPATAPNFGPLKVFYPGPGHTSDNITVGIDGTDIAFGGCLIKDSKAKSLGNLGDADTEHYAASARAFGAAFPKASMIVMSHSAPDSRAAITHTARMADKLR
Sequence of IMP-1 (P52699 whole entry, looked up): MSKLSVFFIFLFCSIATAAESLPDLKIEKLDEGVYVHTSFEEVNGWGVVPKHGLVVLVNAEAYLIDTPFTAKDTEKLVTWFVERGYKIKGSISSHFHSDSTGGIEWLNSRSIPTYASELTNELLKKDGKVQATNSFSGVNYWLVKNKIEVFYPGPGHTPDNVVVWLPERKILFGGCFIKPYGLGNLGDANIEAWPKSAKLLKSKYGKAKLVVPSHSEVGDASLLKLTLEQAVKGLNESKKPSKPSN

NS(=O)(=O)c1cccc(-c2ccnc3ccccc23)c1-c1nn[nH]n1 [Example 319, 3-(quinolin-4-yl)-2-(2H-tetrazol-5-yl)benzenesulfonamide]
IC50 [1, 8]: 0.551 nM
IC50 [2, 9]: 62.2 nM
IC50 [3, 10]: 0.886 nM
Escherichia coli MITC95 [4]: 0.3906 µM
Escherichia coli MITC95 [5]: 3.906 µM
Klebsiella pneumoniae MITC95 [6]: 3.906 µM
Serratia marcescens MITC95 [7]: 3.906 µM

NS(=O)(=O)c1cccc(-c2cnc3[nH]ccc3c2)c1-c1nn[nH]n1 [Example 312, 3-(1H-pyrrolo[2,3-b]pyridin-5-yl)-2-(2H-tetrazol-5-yl)benzenesulfonamide]
IC50 [1, 8]: 0.95 nM
IC50 [2, 9]: 107 nM
IC50 [3, 10]: 6.5 nM
Escherichia coli MITC95 [4]: 0.3906 µM
Escherichia coli MITC95 [5]: 0.5859 µM
Klebsiella pneumoniae MITC95 [6]: 3.125 µM
Serratia marcescens MITC95 [7]: 5.469 µM

NS(=O)(=O)c1cccc(-c2cnc3[nH]ncc3c2)c1-c1nn[nH]n1 [Example 309, 3-(1H-pyrazolo[3,4-b]pyridin-5-yl)-2-(2H-tetrazol-5-yl)benzenesulfonamide]
IC50 [1, 8]: 1.35 nM
IC50 [2, 9]: 326 nM
Escherichia coli MITC95 [4]: 0.3906 µM
Escherichia coli MITC95 [5]: 0.7813 µM
Klebsiella pneumoniae MITC95 [6]: 5.729 µM
Serratia marcescens MITC95 [7]: 8.333 µM

Nc1ncc(-c2cccc(S(N)(=O)=O)c2-c2nn[nH]n2)cc1F [Example 314, 3-(6-amino-5-fluoropyridin-3-yl)-2-(2H-tetrazol-5-yl)benzenesulfonamide]
IC50 [1, 8]: 3.65 nM
IC50 [2, 9]: 292 nM
Escherichia coli MITC95 [4]: 0.1953 µM
Escherichia coli MITC95 [5]: 0.3906 µM
Klebsiella pneumoniae MITC95 [6]: 3.906 µM
Serratia marcescens MITC95 [7]: 5.469 µM

NS(=O)(=O)c1nccc(-c2ccccc2)c1-c1nn[nH]n1 [Example 207, 4-phenyl-3-(2H-tetrazol-5-yl)pyridine-2-sulfonamide]
IC50 [1, 11]: 35.1 nM
IC50 [2, 11]: 373 nM
IC50 [3, 12]: 201 nM
Escherichia coli expressing NDM-1 (CLB 30005) MITC95 [4]: 0.1953 µM
Escherichia coli expressing NDM-1 (CLB 30016) MITC95 ([5]; concentration giving 95% inhibition of bacterial growth): 0.5 µM

Cc1csc(-c2cccc(S(N)(=O)=O)c2-c2nn[nH]n2)n1 [Example 34, 3-(4-methyl-1,3-thiazol-2-yl)-2-(2H-tetrazol-5-yl)benzenesulfonamide]
IC50 [1, 11]: 151 nM
IC50 [2, 11]: 3090 nM
IC50 [3, 12]: 1440 nM
Escherichia coli expressing NDM-1 (CLB 30005) MITC95 [4]: 3.125 µM
Klebsiella pneumoniae expressing VIM-1 (IHMA 599644) MITC95 [6]: >200 µM
Serratia marcescens expressing IMP-1 (CL5741) MITC95 [7]: 150 µM

CS(=O)(=O)Nc1cccc(-c2ccnc(S(N)(=O)=O)c2-c2nn[nH]n2)c1 [Example 202, 4-(3-(methylsulfonamido)phenyl)-3-(2H-tetrazol-5-yl)pyridine-2-sulfonamide]
IC50 [1, 11]: 11.5 nM
IC50 [2, 11]: 23.8 nM
IC50 [3, 12]: 118 nM
Escherichia coli expressing NDM-1 (CLB 30005) MITC95 [4]: 0.3906 µM
Klebsiella pneumoniae expressing VIM-1 (IHMA 599644) MITC95 [6]: 25 µM
Serratia marcescens expressing IMP-1 (CL5741) MITC95 [7]: 2.344 µM

NS(=O)(=O)c1cccc(C2CCCN(C(=O)C3CC3)C2)c1-c1nn[nH]n1 (stereo not shown) [Example 177, 3-(1-(cyclopropanecarbonyl)piperidin-3-yl)-2-(2H-tetrazol-5-yl)benzenesulfonamide]
IC50 [1, 11]: 12.8 nM
IC50 [2, 11]: 668 nM
IC50 [3, 12]: 733 nM
Escherichia coli expressing NDM-1 (CLB 30005) MITC95 [4]: 6.25 µM
Klebsiella pneumoniae expressing VIM-1 (IHMA 599644) MITC95 [6]: >200 µM
Serratia marcescens expressing IMP-1 (CL5741) MITC95 [7]: 37.5 µM

CN(C)CCNC(=O)c1ccc(-c2cccc(S(N)(=O)=O)c2-c2nn[nH]n2)cc1 [Example 87, N-[2-(dimethylamino)ethyl]-3′-sulfamoyl-2′-(2H-tetrazol-5-yl)biphenyl-4-carboxamide]
IC50 [1, 11]: 95.5 nM
IC50 [2, 11]: 908 nM
IC50 [3, 12]: 2090 nM
Escherichia coli expressing NDM-1 (CLB 30005) MITC95 [4]: 3.906 µM
Klebsiella pneumoniae expressing VIM-1 (IHMA 599644) MITC95 [6]: 200 µM
Serratia marcescens expressing IMP-1 (CL5741) MITC95 [7]: 18.75 µM

NS(=O)(=O)c1cccc(-c2ccc(C(O)C(F)F)cc2)c1-c1nnn[nH]1 (stereo not shown) [Example 24, 4′-(2,2-difluoro-1-hydroxyethyl)-2-(1H-tetrazol-5-yl)biphenyl-3-sulfonamide]
IC50 [1, 11]: 3.65 nM
IC50 [2, 11]: 17.8 nM
IC50 [3, 12]: 124 nM
Escherichia coli expressing NDM-1 (CLB 30005) MITC95 [4]: 1.563 µM
Klebsiella pneumoniae expressing VIM-1 (IHMA 599644) MITC95 [6]: 150 µM
Serratia marcescens expressing IMP-1 (CL5741) MITC95 [7]: 3.125 µM

COc1cccc(-c2cccc(S(N)(=O)=O)c2-c2nn[nH]n2)n1 [Example 37, 3-(6-methoxypyridin-2-yl)-2-(2H-tetrazol-5-yl)benzenesulfonamide]
IC50 [1, 11]: 26.4 nM
IC50 [2, 11]: 1210 nM
IC50 [3, 12]: 206 nM
Escherichia coli expressing NDM-1 (CLB 30005) MITC95 [4]: 2.344 µM
Klebsiella pneumoniae expressing VIM-1 (IHMA 599644) MITC95 [6]: 200 µM
Serratia marcescens expressing IMP-1 (CL5741) MITC95 [7]: 50 µM

NS(=O)(=O)c1cccc(-c2ccc3ncccc3c2)c1-c1nn[nH]n1 [Example 66, 3-quinolin-6-yl-2-(2H-tetrazol-5-yl)benzenesulfonamide]
IC50 [1, 11]: 1.1 nM
IC50 [2, 11]: 140 nM
IC50 [3, 12]: 29.1 nM
Escherichia coli expressing NDM-1 (CLB 30005) MITC95 [4]: 0.7813 µM
Klebsiella pneumoniae expressing VIM-1 (IHMA 599644) MITC95 [6]: 75 µM
Serratia marcescens expressing IMP-1 (CL5741) MITC95 [7]: 18.75 µM

Cc1ccc(-c2cc(-c3ccc(O)nc3)cc(S(N)(=O)=O)c2-c2nn[nH]n2)cc1 [Example 292, 5-(6-hydroxypyridin-3-yl)-4′-methyl-2-(2H-tetrazol-5-yl)-[1,1′-biphenyl]-3-sulfonamide]
IC50 [1, 8]: 3.65 nM
IC50 [2, 9]: 416 nM
IC50 [3, 10]: 193 nM
Escherichia coli MITC95 [4]: 3.516 µM
Klebsiella pneumoniae MITC95 [6]: >200 µM
Serratia marcescens MITC95 [7]: 18.75 µM

CCOCc1ccc(-c2cccc(S(N)(=O)=O)c2-c2nnn[nH]2)cc1 [Example 397, 4′-(Ethoxymethyl)-2-(1H-tetrazol-5-yl)-[1,1′-biphenyl]-3-sulfonamide]
IC50 [1, 8]: 3.93 nM
IC50 [2, 9]: 37.3 nM
IC50 [3, 13]: 246 nM
Escherichia coli MITC95 [4]: 3.906 µM
Klebsiella pneumoniae MITC95 [6]: >200 µM
Serratia marcescens MITC95 [7]: 9.375 µM

NS(=O)(=O)c1cccc(C#CCN2CCS(=O)(=O)CC2)c1-c1nn[nH]n1 [Example 148, 3-[3-(1,1-dioxidothiomorpholin-4-yl)prop-1-yn-1-yl]-2-(2H-tetrazol-5-yl)benzenesulfonamide]
IC50 [1, 11]: 131 nM
IC50 [2, 11]: 550 nM
IC50 [3, 12]: 3080 nM
Escherichia coli expressing NDM-1 (CLB 30005) MITC95 [4]: 6.25 µM
Klebsiella pneumoniae expressing VIM-1 (IHMA 599644) MITC95 [6]: >200 µM
Serratia marcescens expressing IMP-1 (CL5741) MITC95 [7]: 50 µM

Cc1ccc(-c2cc(-c3ccc4c(c3)CNC4)cc(S(N)(=O)=O)c2-c2nn[nH]n2)cc1 [Example 294, 5-(isoindolin-5-yl)-4′-methyl-2-(2H-tetrazol-5-yl)-[1,1′-biphenyl]-3-sulfonamide]
IC50 [1, 8]: 0.637 nM
IC50 [2, 9]: 29.4 nM
IC50 [3, 13]: 193 nM
Escherichia coli MITC95 [4]: 0.3802 µM
Klebsiella pneumoniae MITC95 [6]: 37.5 µM
Serratia marcescens MITC95 [7]: 0.6406 µM

NS(=O)(=O)c1nccc(-c2ccc3[nH]nc(C(F)(F)F)c3c2)c1-c1nn[nH]n1 [Example 209, 3-(2H-tetrazol-5-yl)-4-(3-(trifluoromethyl)-1H-indazol-5-yl)pyridine-2-sulfonamide]
IC50 [1, 11]: 26.3 nM
IC50 [2, 11]: 516 nM
IC50 [3, 12]: 5.45 nM
Escherichia coli expressing NDM-1 (CLB 30005) MITC95 [4]: 2.604 µM
Klebsiella pneumoniae expressing VIM-1 (IHMA 599644) MITC95 [6]: 37.5 µM
Serratia marcescens expressing IMP-1 (CL5741) MITC95 [7]: 75 µM
